The results in this text go back to PMC12042053, “Activation and Allostery in a Fungal SAMHD1 Hydrolase: An Evolutionary Blueprint for dNTP Catabolism” (JACS Au, 2025).

In data set [1] the target is T1, Ri SAMHD1 (Rhizophagus irregularis, UniProt A0A015K8Z8).
T1 construct: gene RirG_017260; full length (no SAM domain), N-terminal His6-tag, pET28a(+), expressed in E. coli T7 Express in M9 medium with Fe or Mn; purified as monomer and tetramer; crystal model residues 11-451
The data set is described as follows: steady-state hydrolysis, HPLC […] nm. The class given is biochemical. The following applies: M9-Fe tetramer, 0.25 μM, 1 mM Mn, 5 mM dithionite, O2-free, fit with substrate/product inhibition, suggested allosteric, second site.

For data set [2], the target named is T2, Ri SAMHD1 (Rhizophagus irregularis, UniProt A0A015K8Z8, R42A).
T2 construct: gene RirG_017260; full length (no SAM domain), N-terminal His6-tag, pET28a(+), expressed in E. coli T7 Express in M9 medium with Fe or Mn; purified as monomer and tetramer; crystal model residues 11-451
The data set is described as follows: nucleotide-induced tetramerization, glutaraldehyde cross-linking and SDS-PAGE. Conditions: monomer, 2 μM, 1 mM Mn, pH 6.5; allosteric, cooperative. It counts as binding.

Data set [3] deals with T3, Ri SAMHD1 (Rhizophagus irregularis, UniProt A0A015K8Z8, D34A).
T3 construct: gene RirG_017260; full length (no SAM domain), N-terminal His6-tag, pET28a(+), expressed in E. coli T7 Express in M9 medium with Fe or Mn; purified as monomer and tetramer; crystal model residues 11-451
The description is as above. The class given is binding. Conditions: monomer, 2 μM, 1 mM Mn, pH 6.5; allosteric, cooperative.

Data set [4] has as its target T1, Ri SAMHD1. The data set is described as above. The class given is binding. Conditions: monomer, 2 μM, pH 6.5, allosteric.
Data set [5] deals with T1, Ri SAMHD1. The data set can be described thus: EPR of mixed-valent diiron cofactor. It counts as binding. Conditions: M9-Fe protein 0.5 mM, ascorbate-reduced, 2.5 mM nucleotide, O2-free; active site.
Data set [6] deals with T1, Ri SAMHD1. The data set is described as follows: X-ray crystal structure, […] Å. It counts as binding. The following applies: M9-Mn protein, excess Mn, 5 mM GTP; allosteric site at interface of three subunits; Ca ion bound.
In data set [7] the target is SAMHD1 protein from Rhizophagus irregularis, wild type (Rhizophagus irregularis).
Substrate in the data set “purified protein”: Nc1nc2c(ncn2[C@H]2C[C@H](O)[C@@H](COP(=O)(O)OP(=O)(O)OP(=O)(O)O)O2)c(=O)[nH]1
The data set can be described thus: purified protein. It counts as biochemical, Rhizophagus irregularis. Conditions: M9-Fe tetramer, 0.25 μM, 1 mM Mn, 5 mM dithionite, O2-free; fit with substrate/product inhibition.

T3 sequence (A0A015K8Z8 entry or part of it D34A): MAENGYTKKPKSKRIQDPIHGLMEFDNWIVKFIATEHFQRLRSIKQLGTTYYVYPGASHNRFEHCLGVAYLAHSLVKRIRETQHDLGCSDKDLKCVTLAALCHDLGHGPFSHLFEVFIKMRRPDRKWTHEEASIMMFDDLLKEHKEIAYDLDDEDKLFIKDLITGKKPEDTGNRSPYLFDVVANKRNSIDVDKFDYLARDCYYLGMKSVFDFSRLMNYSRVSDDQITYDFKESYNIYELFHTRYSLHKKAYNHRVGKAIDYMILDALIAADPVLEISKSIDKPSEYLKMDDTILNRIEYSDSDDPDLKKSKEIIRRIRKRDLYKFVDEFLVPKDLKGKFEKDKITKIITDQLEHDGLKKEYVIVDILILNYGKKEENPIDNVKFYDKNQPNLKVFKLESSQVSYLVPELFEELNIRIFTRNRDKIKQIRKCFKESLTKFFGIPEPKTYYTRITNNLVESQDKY
T2 sequence (A0A015K8Z8 entry or part of it R42A): as the sequence (A0A015K8Z8 entry or part of it D34A) above, with A34D, R42A counted along it

Take `Nc1nc2c(ncn2[C@H]2C[C@H](O)[C@@H](COP(=O)(O)OP(=O)(O)OP(=O)(O)O)O2)c(=O)[nH]1` [dGTP]: the “apparent KI” value at Ri SAMHD1 [1] is 301 ± 24 µM. For the same molecule, the concentration for a half-maximal effect (EC50) on Ri SAMHD1 [2] is 605 ± 9 µM; at Ri SAMHD1 [3] it was 235 ± 5 µM; on Ri SAMHD1 [4] (1 mM Mn), 21 ± 3 µM.
With `Cc1cn([C@H]2C[C@H](O)[C@@H](COP(=O)(O)OP(=O)(O)OP(=O)(O)O)O2)c(=O)[nH]c1=O` [dTTP], the “EPR of mixed-valent diiron cofactor” value on Ri SAMHD1 [5] is “Addition of nonguanine-containing dNTPs (dATP, dCTP, and dTTP) increased the signal rhombicity”.
Take `Nc1nc2c(ncn2[C@@H]2O[C@H](COP(=O)(O)OP(=O)(O)OP(=O)(O)O)[C@@H](O)[C@H]2O)c(=O)[nH]1` [GTP]: the “X-ray crystal structure, 2.27 Å” value at Ri SAMHD1 [6] is “only one nucleotide (GTP) is positioned within the interface of three subunits”. Further, at Ri SAMHD1 [4] (Mn), a half-maximal response (EC50) required 31 ± 2 µM.
Turning to “SAMHD1 protein from Rhizophagus irregularis, wild type (enzyme)”, in data set [7], the apparent dNTP hydrolysis rates of the monomeric form on addition of GTP is less than 2.4 fold.
As for `Nc1ncnc2c1ncn2[C@H]1C[C@H](O)[C@@H](COP(=O)(O)OP(=O)(O)OP(=O)(O)O)O1` [dATP], on Ri SAMHD1 [5], the “EPR of mixed-valent diiron cofactor” value was “Addition of nonguanine-containing dNTPs (dATP, dCTP, and dTTP) increased the signal rhombicity”.
Turning to `Nc1ccn([C@H]2C[C@H](O)[C@@H](COP(=O)(O)OP(=O)(O)OP(=O)(O)O)O2)c(=O)n1` [dCTP], the “EPR of mixed-valent diiron cofactor” value on Ri SAMHD1 [5] is “Addition of nonguanine-containing dNTPs (dATP, dCTP, and dTTP) increased the signal rhombicity”.

B1: Ri SAMHD1 (Rhizophagus irregularis DAOM 197198w) (protein)
chain: MAENGYTKKPKSKRIQDPIHGLMEFDNWIVKFIDTEHFQRLRSIKQLGTTYYVYPGASHNRFEHCLGVAYLAHSLVKRIRETQHDLGCSDKDLKCVTLAALCHDLGHGPFSHLFEVFIKMRRPDRKWTHEEASIMMFDDLLKEHKEIAYDLDDEDKLFIKDLITGKKPEDTGNRSPYLFDVVANKRNSIDVDKFDYLARDCYYLGMKSVFDFSRLMNYSRVSDDQITYDFKESYNIYELFHTRYSLHKKAYNHRVGKAIDYMILDALIAADPVLEISKSIDKPSEYLKMDDTILNRIEYSDSDDPDLKKSKEIIRRIRKRDLYKFVDEFLVPKDLKGKFEKDKITKIITDQLEHDGLKKEYVIVDILILNYGKKEENPIDNVKFYDKNQPNLKVFKLESSQVSYLVPELFEELNIRIFTRNRDKIKQIRKCFKESLTKFFGIPEPKTYYTRITNNLVESQDKY
notes: full length (no SAM domain), N-terminal His6-tag, pET28a(+), expressed in E. coli T7 Express in M9 medium with Fe or Mn; purified as monomer and tetramer; crystal model residues 11-451
As to B1, the Km in “purified protein” is 11 ± 3 µM.
